Experimental data taken from patent US20130149250A1, “HYPERPOLARIZED AGENTS FOR MRI CHARACTERIZATION OF REDOX SYSTEMS IN VIVO” (The Regents of the University of California, priority 2011, published 2013).
Entries after “also recorded” stand apart in the source; their conditions may differ.

Experiments:
rat brains = conditions: in vivo
Procedure: (§1) The RF coil used in these experiments was a dual-tuned ^1H-^13C coil with a quadrature ^13C channel and linear ^1H channel construction used in ^13C mouse imaging studies. ^13C MRSI studies were carried out as previously published. 350 μl (mice) or 2 mL (rats) of a hyperpolarized 15 mM [1-^13C] DHA solution were injected similar to previously described methods for [1-^13C]pyruvate. Similar experiments were performed on a set of normal mice using hyperpolarized [1-^13C] Vitamin C at 50 mM.
(§2) Tissues with high exposure to environmental toxins, namely the liver, kidney and lungs, are known to be rich in GSH and were considered the most likely source for the hyperpolarized [1-^13C] Vitamin C signal observed in vivo. In addition, a contribution from highly glycolytic tissues was anticipated, given the rapid transport properties of dehydroascorbate. Analogous to experiments performed previously using hyperpolarized [1-^13C]pyruvate, 3D MRSI studies were conducted on a series of normal mice (n=3), TRAMP mice (n=3), and rats (n=3) using a dual-tuned RF coil.

TRAMP mice = conditions: mouse, in vivo
Procedure: as §1, §2

normal mice [1] = conditions: mouse, in vivo
Procedure: as §1, §2

[2] = DNP hyperpolarization (HyperSense, OX063 trityl radical): build-up and polarization; format: physicochemical; conditions: for Percent Polarization: DNP, 15 mM OX063; for Percent Polarization / Buildup Constant: mean±SD; for Buildup Constant: solid-state build-up constant
normal mice [3] = test: Dynamic 13C MR spectroscopy after injection of hyperpolarized probe in normal mice; format: in vivo, mouse
Procedure: as §1
Evidence of in vivo transformation was determining having obtained data validating hyperpolarized [1-^13C] DHA as a redox probe. The transport of DHA in vivo occurs by a mechanism analogous to that of glucose, by facilitated diffusion using GLUT1, GLUT3, and GLUT4. Since glucose is known to compete with the uptake of DHA, in vivo experiments were performed on animals (mice and rats) fasted overnight. […] Dynamic MRSI studies were carried out as previously published. 350 μl of a hyperpolarized 15 mM [1-^13C] DHA solution were injected similar to previously described methods for [1-^13C] pyruvate, in normal mice with a ^13C urea phantom present for chemical shift reference. In a separate set of normal mice, similar experiments were performed using hyperpolarized [1-^13C] Vitamin C at a slightly higher concentration, 50 mM. […] DHA in a normal mouse. The DHA resonance at 174 ppm reached a maximum at 19±1.7 secs post injection. […] Vitamin C in vivo. This chemical shift was confirmed both in vitro at neutral pH using ^13C urea as a reference, as well as in vivo with hyperpolarized [1-^13C] Vitamin C itself injected in a separate animal.

MCD mouse liver = test: HP DHA 13C MRSI of liver in methionine choline deficient (MCD) diet NAFLD mouse model; format: in vivo
Procedure: Prior to and post diet, high-resolution T2 and fat-water imaging was conducted at 14 T using a Varian WB600 micro-imager and 40 mm 1H millipede coil (Varian Instruments, Palo Alto, Calif.). Lipid percentage maps were calculated from fat and water images acquired using a conventional spin-echo sequence using the Dixon method. 350 μL of hyperpolarized DHA was injected each mouse (n=4) at baseline and 2 weeks of MCD diet using a Hypersense (Oxford Instruments). 13C MRSI data was acquired using an EPSI readout, variable flip angle scheme, matrix size 16×8×8 and final voxel resolution of 6 mm isotropic on a 3 T GE MRI (GE Healthcare, Waukesha, Wis.) equipped with a multinuclear package and dual-tuned 1H-^13C imaging coil. […] Ratios of HP DHA and VitC were calculated from the peak integrals in 3D MRSI data. Mice were then sacrificed and liver tissue was sectioned for staining with hematoxylin and eosin (H&E, structure) and Oil Red (lipid presence). Livers of normal mice were used for histologic comparison.

TRAMP tumors [4] = test: HP [1-13C] DHA 3D MRSI in TRAMP mice (Example 4); format: in vivo, mouse
Excerpt: Hyperpolarization and dissolution of [1-^13C] DHA: [1-^13C] DHA dimer was polarized and dissolved.

[5] = 11.7 T NMR studies (T1 of hyperpolarized ascorbates); format: physicochemical; conditions: spin-lattice relaxation of C1 carbon at 11.7 T; mean±SD
Procedure: NMR studies were performed on an 11.7 T Varian NOVA spectrometer (125 MHz ^13C, Varian Instruments) using a 10 mm ^15N/^31P/^13C broadband direct detect probe. Thermal and dynamic hyperpolarized spectra for [1-^13C] DHA and [1-^13C] Vitamin C were obtained as previously described, and used to calculate T1's and signal enhancements. For NMR studies of the reduction of [1-^13C] DHA to [1-^13C] Vitamin C, hyperpolarized [1-^13C] DHA was reacted with an excess of sodium cyanoborohydride (NaBH3CN).
(§3) In vitro methods to interrogate redox chemistry have relied on designer redox-sensitive fluorescent proteins (yellow- or green fluorescent protein) incorporating an artificial dithiol-disulfide pair, or on detection of ROS themselves via chemical switching. In general, fluorescent probes have limited clinical translation given poor tissue penetration; making MR-compatible hyperpolarized ^13C probes an attractive alternative. […] The material was polarized by using a DNP approach and dissolved with a hot water/EDTA solution, with T1's calculated as previously described. […] Vitamin C carbons are tabulated at both 11.7 T and 3 T, with the longest recorded T1 that of [1-^13C] […] Vitamin C were measured as 5.9±0.5% and 3.6±0.1% respectively, representing signal enhancements on the order of approximately 24,000 and 15,000-fold relative to thermal equilibrium at 3 T. […]

TRAMP tumors [6] = conditions: TRAMP mice, PET 50 minutes post injection
Procedure: FDG-PET: PET scans were performed on a small animal PET/CT scanner (Inveon, Siemens Healthcare, Malvern, Pa.). Mice were fasted overnight, anesthetized, and injected intravenously with 150-170 uCi FDG in 0.1-0.2 mL saline. PET images were acquired 50 minutes post injection in one 600 second frame. CT images were acquired in 120 projections of continuous rotation to cover 220° with x-ray tube operating at 80 kVp, 0.5 mA, and 175 ms exposure time. The matrix size of the reconstructed CT images was 512×512×662 with an isotropic voxel size of 0.191×0.191×0.191 mm^3 PET images were reconstructed using a manufacturer-provided ordered subsets expectation maximization (OS-EM) algorithm resulting in a 128×128×159 matrices with a voxel size of 0.776×0.776×0.796 mm^3 ROIs were drawn in both the tumors and surrounding tissue to calculate relative tumor signals.

[7] = T1 studies of hyperpolarized ascorbates on a 3 T MRI scanner; format: physicochemical; conditions: spin-lattice relaxation of C1 carbon at 3 T; mean±SD
Procedure: as §1, §3

O=C1C(=O)[13C](=O)O[C@@H]1[C@@H](O)CO [[1-^13C] DHA, [1-^13C] dehydroascorbate]
VitC/Total Carbon (rat brains): 0.51±0.1 | VitC/Total Carbon (TRAMP mice): 0.29±0.09 | Vitamin C signal (normal mice [1]): no Vitamin C signal was observed | Percent Polarization [2]: 5.9±0.5% | signal enhancement relative to thermal equilibrium ([2]; at 3 T): approximately 24,000 fold | Buildup Constant [2]: 1120 ± 50 s | time of maximum of DHA resonance (174 ppm) post injection (normal mice [3]; mouse, in vivo): 19 ± 1.7 s | time of maximum of metabolite resonance (177.8 ppm, [1-13C] Vitamin C) (normal mice [3]; mouse, in vivo): 29 ± 1.7 s | VitC/DHA ratio (MCD mouse liver; after 2 weeks on MCD diet): 0.46±0.1 | VitC/VitC+DHA (MCD mouse liver; after 2 weeks on MCD diet): 0.30±0.5 | decrease in the VitC/DHA ratio from baseline (MCD mouse liver; after 2 weeks on MCD diet, P=0.005): 92% | decrease in the VitC/VitC+DHA ratio from baseline (MCD mouse liver; after 2 weeks on MCD diet, P=0.01): 48% | VitC/DHA ratio (MCD mouse liver; baseline): 0.98±0.09 | VitC/VitC+DHA (MCD mouse liver; baseline (normal liver)): 0.49±02 | Total HP 13C in tumors relative to surrounding tissue (TRAMP tumors [4]; TRAMP mice): 2.1±0.4 | tumor HP VitC/[VitC+DHA] relative to surrounding tissue (TRAMP tumors [4]; TRAMP mice): 7.0±2.3 | HP VitC (ratio of VitC to total HP signal) (TRAMP tumors [4]; TRAMP tumors (N=4)): 0.23±0.03 | HP VitC (ratio of VitC to total HP signal) (TRAMP tumors [4]; benign prostate, P=0.001): 0.06±0.03 | HP VitC (ratio of VitC to total HP signal) (TRAMP tumors [4]; surrounding tissues, P=0.005): 0.05±0.02 | 11.7T T1 [5]: 20.5 ± 0.9 s

O=C[C@H]([18F])[C@@H](O)[C@H](O)[C@H](O)CO [FDG, 2-18F-2-deoxy-D-glucose]
18F signal in regions of tumor relative to surrounding regions (TRAMP tumors [6]): 6.8±3.6

O=[13C]1O[C@H]([C@@H](O)CO)C(O)=C1O [[1-^13C] Vitamin C, [1-^13C] ascorbic acid]
Percent Polarization [2]: 3.6±0.1% | Buildup Constant [2]: 1756 ± 97 s | 3T T1 [7]: 29.2 ± 2.5 s | in vivo oxidation of hyperpolarized [1-13C] Vitamin C to [1-13C] DHA (normal mice [3]; 50 mM hyperpolarized [1-13C] Vitamin C, normal mice): trace oxidation; also recorded: trace conversion | 11.7T T1 [5]: 16.0 ± 0.8 s
